Active and inactive are the calls of the source. The calls are words filed in the database; no cut-off is given here.
Experiments:
HT-29 [1] = assay: Inhibition of TNFalpha-mediated adhesion of BCECF fluorescence-labeled human U937 cells to human HT-29 cells at 1 uM pretreated for 1 hr followed by BCECF fluorescence-labeled human U937 cell/TNFalpha addition and measured after 3 hrs by fluorescence assay relative to control; type: functional
HT-29 [2] = assay: Potency index, ratio of compound effect to 5-ASA effect for inhibition of TNFalpha-mediated adhesion of BCECF fluorescence-labeled human U937 cells to human HT-29 cells at 1 uM; type: functional
HT-29 [3] = assay: Inhibition of TNFalpha-mediated adhesion of BCECF fluorescence-labeled human U937 cells to human HT-29 cells at 20 mM pretreated for 1 hr followed by BCECF fluorescence-labeled human U937 cell/TNFalpha addition and measured after 3 hrs by fluorescence assay relative to control; type: functional
HT-29 [4] = assay: Potency index, ratio of 5-ASA IC50 to test compound IC50 for TNFalpha-mediated adhesion of BCECF fluorescence-labeled human U937 cells to human HT-29 cells; type: functional
Rattus norvegicus [5] = assay: Antiinflammatory activity in TNBS-induced Sprague-Dawley rat colitis model assessed as recovery in colon weight at 300 mg/kg, po administered once daily via gavage for 5 days starting 1 day post TNBS induction measured on day 7; type: functional, organism-based
Rattus norvegicus [6] = assay: Antiinflammatory activity in TNBS-induced Sprague-Dawley rat colitis model assessed as myeloperoxidase level at 300 mg/kg, po administered once daily via gavage for 5 days starting 1 day post TNBS induction measured on day 7 by ELISA (reference value: 456.67 +/- 41.78 ng/ml); type: functional
Rattus norvegicus [7] = assay: Antiinflammatory activity in TNBS-induced Sprague-Dawley rat colitis model assessed as decrease in MCP1 expression at 300 mg/kg, po administered once daily via gavage for 5 days starting 1 day post TNBS induction measured on day 7 by ELISA; type: functional, organism-based
Rattus norvegicus [8] = assay: Antiinflammatory activity in TNBS-induced Sprague-Dawley rat colitis model assessed as decrease in ICAM1 expression at 300 mg/kg, po administered once daily via gavage for 5 days starting 1 day post TNBS induction measured on day 7 by Western blot analysis; type: functional, organism-based
Rattus norvegicus [9] = assay: Antiinflammatory activity in TNBS-induced Sprague-Dawley rat colitis model assessed as decrease in TNFalpha expression at 300 mg/kg, po administered once daily via gavage for 5 days starting 1 day post TNBS induction measured on day 7 by Western blot analysis; type: functional, organism-based
Rattus norvegicus [10] = assay: Antiinflammatory activity in TNBS-induced Sprague-Dawley rat colitis model assessed as decrease in IL1beta expression at 300 mg/kg, po administered once daily via gavage for 5 days starting 1 day post TNBS induction measured on day 7 by Western blot analysis; type: functional, organism-based
Rattus norvegicus [11] = assay: Antiinflammatory activity in TNBS-induced Sprague-Dawley rat colitis model assessed as decrease in IL-6 expression at 300 mg/kg, po administered once daily via gavage for 5 days starting 1 day post TNBS induction measured on day 7 by Western blot analysis; type: functional, organism-based
Rattus norvegicus [12] = assay: Antiinflammatory activity in TNBS-induced Sprague-Dawley rat colitis model assessed as increase in IL-10 expression at 300 mg/kg, po administered once daily via gavage for 5 days starting 1 day post TNBS induction measured on day 7 by Western blot analysis; type: functional, organism-based
Rattus norvegicus [13] = assay: Antiinflammatory activity in TNBS-induced Sprague-Dawley rat colitis model assessed as myeloperoxidase level at 1 mg/kg, po administered once daily via gavage for 5 days starting 1 day post TNBS induction measured on day 7 by ELISA (reference value: 456.67 +/- 41.78 ng/ml); type: functional
Rattus norvegicus [14] = assay: Antiinflammatory activity in TNBS-induced Sprague-Dawley rat colitis model assessed as reduction in body weight loss at 1 mg/kg, po administered once daily via gavage for 5 days starting 1 day post TNBS induction measured on day 7; type: functional, organism-based
Rattus norvegicus [15] = assay: Antiinflammatory activity in TNBS-induced Sprague-Dawley rat colitis model assessed as recovery in colon weight at 1 mg/kg, po administered once daily via gavage for 5 days starting 1 day post TNBS induction measured on day 7 relative to control; type: functional
Rattus norvegicus [16] = assay: Antiinflammatory activity in TNBS-induced Sprague-Dawley rat colitis model assessed as decrease in MCP1 expression at 1 mg/kg, po administered once daily via gavage for 5 days starting 1 day post TNBS induction measured on day 7 by ELISA; type: functional, organism-based
Rattus norvegicus [17] = assay: Antiinflammatory activity in TNBS-induced Sprague-Dawley rat colitis model assessed as decrease in ICAM1 expression at 1 mg/kg, po administered once daily via gavage for 5 days starting 1 day post TNBS induction measured on day 7 by Western blot analysis; type: functional, organism-based
Rattus norvegicus [18] = assay: Antiinflammatory activity in TNBS-induced Sprague-Dawley rat colitis model assessed as decrease in TNFalpha expression at 1 mg/kg, po administered once daily via gavage for 5 days starting 1 day post TNBS induction measured on day 7 by Western blot analysis; type: functional, organism-based
Rattus norvegicus [19] = assay: Antiinflammatory activity in TNBS-induced Sprague-Dawley rat colitis model assessed as decrease in IL1beta expression at 1 mg/kg, po administered once daily via gavage for 5 days starting 1 day post TNBS induction measured on day 7 by Western blot analysis; type: functional, organism-based
Rattus norvegicus [20] = assay: Antiinflammatory activity in TNBS-induced Sprague-Dawley rat colitis model assessed as decrease in IL-6 expression at 1 mg/kg, po administered once daily via gavage for 5 days starting 1 day post TNBS induction measured on day 7 by Western blot analysis; type: functional, organism-based
Rattus norvegicus [21] = assay: Antiinflammatory activity in TNBS-induced Sprague-Dawley rat colitis model assessed as increase in IL-10 expression at 1 mg/kg, po administered once daily via gavage for 5 days starting 1 day post TNBS induction measured on day 7 by Western blot analysis; type: functional, organism-based

In the case of `Cc1nc(Nc2ccc(C(F)(F)F)nc2)c(C)c(C)c1O`, the inhibition at 1 µM (HT-29 [1]) is reported as 50.6% and the Ratio (HT-29 [2]) is reported as 3 - 5.

In the case of `Cc1nnc(Nc2nc(C)c(O)c(C)c2C)o1`, the inhibition at 1 µM (HT-29 [1]) is reported as 26.2% and the Ratio (HT-29 [2]) is reported as 3 - 5.

For `Cc1nc(Nc2nnc(-c3ccc(C(F)(F)F)cc3)s2)c(C)c(C)c1O`, the inhibition at 1 µM (HT-29 [1]) was 52.3% and the Ratio (HT-29 [2]) was 3 - 5.

In the case of `Cc1nc(Nc2nccs2)c(C)c(C)c1O`, the inhibition at 1 µM (HT-29 [1]) is reported as 23.7% and the Ratio (HT-29 [2]) is reported as 3 - 5.

With `Cc1nc(Nc2ccc(C(F)(F)F)cn2)c(C)c(C)c1O` the inhibition at 1 µM (HT-29 [1]) was 34.8% and the Ratio (HT-29 [2]) was 3 - 5.

For `Cc1nc(Nc2ccc3ncccc3c2)c(C)c(C)c1O`, the inhibition at 1 µM (HT-29 [1]) was 56.6% and the Ratio (HT-29 [2]) was 3 - 5.

Work on `Nc1ccc(O)c(C(=O)O)c1` [MESALAMINE] yielded an inhibition at 1 µM (HT-29 [1]) of 3.5% and an inhibition at 20000 µM (HT-29 [3]) of 50.5%.

In the case of `Cc1nc(Nc2nnc(-c3ccc(C(F)(F)F)cc3)o2)c(C)c(C)c1O`, the inhibition at 1 µM (HT-29 [1]) is reported as 55.7% and the Ratio (HT-29 [2]) is reported as 3 - 5.

`COC(=O)c1sccc1Nc1nc(C)c(O)c(C)c1C` was tested, and the inhibition at 1 µM (HT-29 [1]) was 23.7% and the Ratio (HT-29 [2]) was 3 - 5.

In the case of `Cc1nc(Nc2cccc3cnccc23)c(C)c(C)c1O`, the inhibition at 1 µM (HT-29 [1]) is reported as 52.8% and the Ratio (HT-29 [2]) is reported as 3 - 5.

For `Cc1nc(Nc2cnc3ccccc3c2)c(C)c(C)c1O`, the inhibition at 1 µM (HT-29 [1]) was 63.4%, the Ratio (HT-29 [2]) was 3 - 5 and the “Ratio IC50” value (HT-29 [4]) was “<=7 ×10⁴ No_unit”.

For `CCOC(=O)c1coc(Nc2nc(C)c(O)c(C)c2C)n1`, the inhibition at 1 µM (HT-29 [1]) was 38.5% and the Ratio (HT-29 [2]) was 3 - 5.

With `Cc1ccc(-c2nnc(Nc3nc(C)c(O)c(C)c3C)s2)cc1` the inhibition at 1 µM (HT-29 [1]) was 16.6% and the Ratio (HT-29 [2]) was 3 - 5.

With `Cc1nc(Nc2nnc(C(F)(F)F)o2)c(C)c(C)c1O` the inhibition at 1 µM (HT-29 [1]) was 35.8% and the Ratio (HT-29 [2]) was 3 - 5.

For `Cc1nc(Nc2ccnc3ccccc23)c(C)c(C)c1O`, the inhibition at 1 µM (HT-29 [1]) was 60.2% and the Ratio (HT-29 [2]) was 3 - 5.

`O=C(O)c1cc(/N=N/c2ccc(S(=O)(=O)Nc3ccccn3)cc2)ccc1O` [SULFASALAZINE] was tested, and the Activity (Rattus norvegicus [5]) was “Active”, the Activity (Rattus norvegicus [6]) was 209.65 ng/mL and the Activity (Rattus norvegicus [7]) was “Active”. For the same molecule, the Activity (Rattus norvegicus [8]) was “Active”, the Activity (Rattus norvegicus [9]) was “Active” and the Activity (Rattus norvegicus [10]) was “Active”. For the same molecule, the Activity (Rattus norvegicus [11]) was “Active” and the Activity (Rattus norvegicus [12]) was “Active”.

In the case of `Cc1nc(Nc2cncc3ccccc23)c(C)c(C)c1O`, the inhibition at 1 µM (HT-29 [1]) is reported as 55.4% and the Ratio (HT-29 [2]) is reported as 3 - 5.

With `Cc1nc(Nc2cccc3[nH]ccc23)c(C)c(C)c1O` the inhibition at 1 µM (HT-29 [1]) was 31.9% and the Ratio (HT-29 [2]) was 3 - 5.

`Cc1nc(Nc2cc(C(F)(F)F)ccn2)c(C)c(C)c1O` was tested, and the inhibition at 1 µM (HT-29 [1]) was 22.8% and the Ratio (HT-29 [2]) was 3 - 5.

In the case of `COc1ccc(-c2nnc(Nc3nc(C)c(O)c(C)c3C)s2)cc1`, the inhibition at 1 µM (HT-29 [1]) is reported as 13.2% and the Ratio (HT-29 [2]) is reported as 3 - 5.

`Cc1nc(Nc2ccccn2)c(C)c(C)c1O` was tested, and the inhibition at 1 µM (HT-29 [1]) was 8.5% and the Ratio (HT-29 [2]) was 3 - 5.

In the case of `Cc1nc(Nc2cccc3cccnc23)c(C)c(C)c1O`, the inhibition at 1 µM (HT-29 [1]) is reported as 10.4% and the Ratio (HT-29 [2]) is reported as 3 - 5.

For `Cc1nc(Nc2ccc(Cl)cn2)c(C)c(C)c1O`, the inhibition at 1 µM (HT-29 [1]) was 59% and the Ratio (HT-29 [2]) was 3 - 5.

In the case of `Cc1nc(Nc2ccc(Cl)nc2)c(C)c(C)c1O`, the inhibition at 1 µM (HT-29 [1]) is reported as 75.4%, the Ratio (HT-29 [2]) is reported as 3 - 5 and the Activity (Rattus norvegicus [13]) is reported as 127.02 ng/mL. The Activity (Rattus norvegicus [14]) was “Active”, the Activity (Rattus norvegicus [15]) was 72% and the Activity (Rattus norvegicus [16]) was “Active”. The Activity (Rattus norvegicus [17]) was “Active”, the Activity (Rattus norvegicus [18]) was “Active” and the Activity (Rattus norvegicus [19]) was “Active”. The Activity (Rattus norvegicus [20]) was “Active”, the Activity (Rattus norvegicus [21]) was “Active” and the “Ratio IC50” value (HT-29 [4]) was “<=7 ×10⁴ No_unit”.

Work on `Cc1nc(Nc2nnc(-c3ccccc3)o2)c(C)c(C)c1O` yielded an inhibition at 1 µM (HT-29 [1]) of 1.4%.

`Cc1nc(Nc2nc3ccccc3[nH]2)c(C)c(C)c1O` was tested, and the inhibition at 1 µM (HT-29 [1]) was 59.9% and the Ratio (HT-29 [2]) was 3 - 5.

For `Cc1nc(Nc2nnc(-c3ccccc3)s2)c(C)c(C)c1O`, the inhibition at 1 µM (HT-29 [1]) was 78.7%, the Ratio (HT-29 [2]) was 3 - 5 and the Activity (Rattus norvegicus [13]) was 107.37 ng/mL. For the same molecule, the Activity (Rattus norvegicus [14]) was “Active”, the Activity (Rattus norvegicus [15]) was 79% and the Activity (Rattus norvegicus [16]) was “Active”. For the same molecule, the Activity (Rattus norvegicus [17]) was “Active”, the Activity (Rattus norvegicus [18]) was “Active” and the Activity (Rattus norvegicus [19]) was “Active”. The Activity (Rattus norvegicus [20]) was “Active” and the Activity (Rattus norvegicus [21]) was “Active”.

For `Cc1nc(Nc2nnc(-c3ccc(Br)cc3)s2)c(C)c(C)c1O`, the inhibition at 1 µM (HT-29 [1]) was 13.7% and the Ratio (HT-29 [2]) was 3 - 5.

Reference: ChEMBL document CHEMBL4257530, “Synthesis and evaluation of 6-heteroarylamino-2,4,5-trimethylpyridin-3-ols as inhibitors of TNF-α-induced cell adhesion and inflammatory bowel disease” (Medchemcomm, 2018)
